Source: ChEMBL document CHEMBL1201862, “PubChem BioAssay data set” (2004)
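48-hour exposure; five concentrations; linearly interpolated endpoints. Abbreviation: GI50, concentration required for 50% inhibition of growth.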 The source made the active and inactive calls. No stated cut-off is given here; in the data, active = GI50 up to about 1.1 µM and inactive = higher.

Legend:
Assay in all cases: NCI-60 cell line screen, 48 h
DLD-1 = tested on: DLD-1
DMS-114 = tested on: DMS-114
DMS-273 = tested on: DMS-273
HOP-18 = tested on: HOP-18
KM-20L2 = tested on: KM-20L2
M19-MEL = tested on: M19-MEL
RXF 631 = tested on: RXF 631
SNB-78 = tested on: SNB-78
XF498 = tested on: XF498

Row | SMILES | GI50 (DLD-1) | GI50 (DMS-114) | GI50 (DMS-273) | GI50 (HOP-18) | GI50 (KM-20L2) | GI50 (M19-MEL) | GI50 (RXF 631) | GI50 (SNB-78) | GI50 (XF498)
1 | COc1ccccc1NC(=O)CC(=O)n1nc(-c2ccccc2)c(/N=N/c2ccccc2[N+](=O)[O-])c1-c1ccccc1 | 42.3 µM (inactive) | 25.6 µM (inactive) | > 100 µM (inactive) | > 100 µM (inactive) | > 100 µM (inactive) | 51.2 µM (inactive) | > 100 µM (inactive) | > 100 µM (inactive) | > 100 µM (inactive)
2 | CC1=C[C@H]2C[C@@]3(C)O[C@@H]([C@]4(C)CC[C@H]([C@@H](C)C(=O)O)OO4)CC3C(C)(C)[C@H]2CC1 (stereo not given in full) | 0.916 µM (active) | 1.56 µM (inactive) | 0.526 µM (active) | – | 2.17 µM (inactive) | 1.67 µM (inactive) | – | 1.08 µM (active) | 0.0573 µM (active)
3 | Cn1c2c(c3ccccc31)C1C(=O)N(c3ccccc3)C(=O)C1CC2 (stereo not given) | > 303 µM (inactive) | > 303 µM (inactive) | > 303 µM (inactive) | – | > 303 µM (inactive) | – | > 303 µM (inactive) | – | –
4 | COC(=O)CC(=O)NCC1=CCC(=O)CC1 | > 100 µM (inactive) | > 100 µM (inactive) | > 100 µM (inactive) | – | – | > 100 µM (inactive) | – | > 100 µM (inactive) | > 100 µM (inactive)
5 | CC1=C(C(=O)Nc2ccc([N+](=O)[O-])cc2)C(c2ccco2)C(C(=O)Nc2ccc([N+](=O)[O-])cc2)=C(C)N1 | 9.68 µM (inactive) | 5 µM (inactive) | – | – | 17.4 µM (inactive) | 13.1 µM (inactive) | 35.8 µM (inactive) | 11.9 µM (inactive) | 0.6 µM (active)
6 | O=C(COc1ccc(Cl)cc1)N1N=C(c2ccc(Cl)cc2)CC1(O)c1ccccc1 (stereo not given) | 13 µM (inactive) | 18.4 µM (inactive) | 15.9 µM (inactive) | 39.2 µM (inactive) | 15.4 µM (inactive) | 24 µM (inactive) | – | > 38.5 µM (inactive) | 27.8 µM (inactive)
7 | CCOc1ccc(/N=N/c2c(-c3ccccc3)nn(C(=O)CC(=O)Nc3cccc(C)c3)c2-c2ccccc2)cc1 | 63.2 µM (inactive) | 30.4 µM (inactive) | > 100 µM (inactive) | > 100 µM (inactive) | 85.5 µM (inactive) | – | 27.5 µM (inactive) | > 100 µM (inactive) | 95.1 µM (inactive)
8 | CCCCCCCCCCCCCC(=O)OCC1OC(=O)C(O)C1O (stereo not given) | > 100 µM (inactive) | > 100 µM (inactive) | – | > 100 µM (inactive) | > 100 µM (inactive) | > 100 µM (inactive) | – | – | > 100 µM (inactive)
9 | COc1ccc(C2C(Cl)C(=O)N2NC(=O)Cc2ccccc2)cc1 (stereo not given) | > 100 µM (inactive) | – | > 100 µM (inactive) | > 100 µM (inactive) | > 100 µM (inactive) | > 100 µM (inactive) | – | > 100 µM (inactive) | > 100 µM (inactive)
10 | COc1cc2c3c(c1OC)-c1c(ccc4c1OCO4)CC3(C#N)N(C(=O)c1ccccc1)CC2 (stereo not given) | 52.2 µM (inactive) | 45.5 µM (inactive) | 49.7 µM (inactive) | – | > 100 µM (inactive) | 67.6 µM (inactive) | 49.4 µM (inactive) | 66.4 µM (inactive) | 23 µM (inactive)
11 | NC(=S)N/N=C(/CC(=O)c1ccc([N+](=O)[O-])cc1)C(=O)Nc1ncc([N+](=O)[O-])s1 | > 100 µM (inactive) | 68.1 µM (inactive) | – | – | > 100 µM (inactive) | > 100 µM (inactive) | > 100 µM (inactive) | > 100 µM (inactive) | > 100 µM (inactive)
12 | C[N+]1=c2c3cccc4cccc(c(=O)n2CC1)c43 | 16.1 µM (inactive) | 15.7 µM (inactive) | 12.4 µM (inactive) | 21.6 µM (inactive) | 15.7 µM (inactive) | 17.3 µM (inactive) | 24.2 µM (inactive) | 14.2 µM (inactive) | –
13 | O=C(O)Cc1cc(=O)[nH]c2c1C(=O)CCC2 | > 100 µM (inactive) | – | > 100 µM (inactive) | > 100 µM (inactive) | > 100 µM (inactive) | > 100 µM (inactive) | – | – | > 100 µM (inactive)
14 | N#Cc1ccc(C2OCC3CC=CCC3CO2)cc1 (stereo not given) | 55 µM (inactive) | 61.7 µM (inactive) | – | > 100 µM (inactive) | > 100 µM (inactive) | 84.7 µM (inactive) | 41.7 µM (inactive) | > 100 µM (inactive) | > 100 µM (inactive)
15 | C[P+]1(Cc2ccccc2)CCCC1 | > 100 µM (inactive) | > 100 µM (inactive) | > 100 µM (inactive) | 63.7 µM (inactive) | > 100 µM (inactive) | > 100 µM (inactive) | – | > 100 µM (inactive) | < 0.01 µM (active)
16 | O=C(O)c1cc(=O)c2c([nH]c3ccccc32)s1 | > 100 µM (inactive) | > 100 µM (inactive) | – | – | > 100 µM (inactive) | > 100 µM (inactive) | > 100 µM (inactive) | > 100 µM (inactive) | > 100 µM (inactive)
17 | COc1ccc(/C=C(\Cl)c2ccc(OC)cc2)cc1 | > 100 µM (inactive) | > 100 µM (inactive) | > 100 µM (inactive) | – | > 100 µM (inactive) | > 100 µM (inactive) | – | – | –
18 | NS(=O)(=O)c1ccc(NC(=O)COC(=O)c2cccc3c(=O)c4ccccc4[nH]c23)cc1 | 45 µM (inactive) | 18.9 µM (inactive) | 37.2 µM (inactive) | 20.1 µM (inactive) | > 100 µM (inactive) | 31.3 µM (inactive) | 33.1 µM (inactive) | 17.4 µM (inactive) | –
19 | CC(=O)C1C(=O)NC(=O)C1=O (stereo not given) | – | > 100 µM (inactive) | > 100 µM (inactive) | > 100 µM (inactive) | > 100 µM (inactive) | > 100 µM (inactive) | – | > 100 µM (inactive) | > 100 µM (inactive)
20 | CC(C(=O)Oc1ccc2ccccc2c1-c1c(O)ccc2ccccc12)c1ccccc1 (stereo not given) | – | 12.3 µM (inactive) | > 10 µM (inactive) | – | – | 15.5 µM (inactive) | 17.2 µM (inactive) | 15.4 µM (inactive) | 14.2 µM (inactive)
21 | C[P+](C)(C)C | > 100 µM (inactive) | > 100 µM (inactive) | – | > 100 µM (inactive) | > 100 µM (inactive) | > 100 µM (inactive) | > 100 µM (inactive) | > 100 µM (inactive) | > 100 µM (inactive)
22 | CC(C)N(C(=O)C1(C)CC1)C(C)C | > 100 µM (inactive) | > 100 µM (inactive) | > 100 µM (inactive) | > 100 µM (inactive) | > 100 µM (inactive) | > 100 µM (inactive) | > 100 µM (inactive) | > 100 µM (inactive) | > 100 µM (inactive)
23 | COc1cc(OC)cc(C(=O)Cc2c(C(=O)c3ccccc3)c3ccccc3n2C(=O)c2ccccc2)c1 | 20.3 µM (inactive) | 15.5 µM (inactive) | 27.4 µM (inactive) | – | 50.6 µM (inactive) | 32 µM (inactive) | – | 38.3 µM (inactive) | 21.4 µM (inactive)
